Results taken from US20230150970A1, “AMINOPYRIMIDINE DERIVATIVES AND THEIR USE AS ARYL HYDROCARBON RECEPTOR MODULATORS” (DONG-A ST CO., LTD., priority 2020, published 2023).

Molecular target: T1, AhR (Homo sapiens, UniProt P35869)
T1 sequence (P35869 11-848): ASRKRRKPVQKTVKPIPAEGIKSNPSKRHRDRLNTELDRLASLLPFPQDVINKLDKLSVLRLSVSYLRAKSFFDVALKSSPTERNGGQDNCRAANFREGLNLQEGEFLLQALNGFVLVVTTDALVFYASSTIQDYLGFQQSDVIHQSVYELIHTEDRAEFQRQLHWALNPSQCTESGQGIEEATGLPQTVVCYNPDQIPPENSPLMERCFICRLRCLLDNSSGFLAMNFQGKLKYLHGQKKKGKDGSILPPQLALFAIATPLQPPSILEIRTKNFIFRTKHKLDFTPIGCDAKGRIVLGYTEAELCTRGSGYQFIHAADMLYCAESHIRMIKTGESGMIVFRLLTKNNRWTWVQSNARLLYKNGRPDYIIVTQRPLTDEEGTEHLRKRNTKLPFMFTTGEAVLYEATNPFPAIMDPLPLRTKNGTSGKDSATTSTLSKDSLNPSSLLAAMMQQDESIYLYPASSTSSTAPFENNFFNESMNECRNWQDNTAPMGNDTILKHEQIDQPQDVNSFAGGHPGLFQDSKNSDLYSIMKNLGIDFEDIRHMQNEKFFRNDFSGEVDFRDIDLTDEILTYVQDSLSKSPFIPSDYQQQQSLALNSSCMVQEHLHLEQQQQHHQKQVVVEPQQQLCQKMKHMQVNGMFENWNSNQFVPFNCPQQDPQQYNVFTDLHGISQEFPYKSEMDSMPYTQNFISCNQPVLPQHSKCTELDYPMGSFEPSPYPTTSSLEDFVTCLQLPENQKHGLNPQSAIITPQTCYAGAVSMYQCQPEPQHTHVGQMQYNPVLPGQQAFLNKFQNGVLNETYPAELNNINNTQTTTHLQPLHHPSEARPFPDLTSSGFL
Assay: In Vitro Assay 1: XRE-luciferase reporter assay, antagonism in human cell line (HepG2)
Settings: Assay 1: AhR-Luc Human Antagonism (IC50, nM), values marked *: kynurenine 50 μM, 6 hours

SMILES | IC50 [nM]
Clc1ccc(-c2cc(N3CCC(c4cc(Cl)cc(Cl)c4)CC3)nc(-c3cccnc3)n2)cc1 [Example 157, 4-(4-chlorophenyl)-6-(4-(3,5-dichlorophenyl)piperidin-1-yl)-2-(pyridin-3-yl)pyrimidine] | > 1000
Clc1ccc(-c2cc(NCC3CCCN(C4CCCCC4)C3)nc(-c3cccnc3)n2)cc1 (stereo not shown) [Example 158, 6-(4-chlorophenyl)-N-((1-cyclohexylpiperidin-3-yl)methyl)-2-(pyridin-3-yl)pyrimidin-4-amine] | 100 to 1000
Clc1ccc(-c2cc(NCC3CCN(Cc4ccccc4)CC3)nc(-c3cccnc3)n2)cc1 [Example 159, N-((1-benzylpiperidin-4-yl)methyl)-6-(4-chlorophenyl)-2-(pyridin-3-yl)pyrimidin-4-amine] | 100 to 1000
CCOC(=O)CC(=O)C1CCN(c2cc(-c3ccc(Cl)cc3)nc(-c3cccnc3)n2)CC1 [Example 160, ethyl 3-(1-(6-(4-chlorophenyl)-2-(pyridin-3-yl)pyrimidin-4-yl)piperidin-4-yl)-3-oxopropanoate] | > 1000
CCOC(=O)CC1CCN(c2cc(-c3ccc(Cl)cc3)nc(-c3cccnc3)n2)CC1 [Example 161, ethyl 2-(1-(6-(4-chlorophenyl)-2-(pyridin-3-yl)pyrimidin-4-yl)piperidin-4-yl)acetate] | > 1000
O[C@H]1CCCN(c2cc(-c3ccc(Cl)cc3)nc(-c3cccnc3)n2)C1 [Example 163, (S)-1-(6-(4-chlorophenyl)-2-(pyridin-3-yl)pyrimidin-4-yl)piperidin-3-ol] | 10 to 100
CN(C)C1CCN(c2cc(-c3ccc(Cl)cc3)nc(-c3cccnc3)n2)C1 (stereo not shown) [Example 164, 1-(6-(4-chlorophenyl)-2-(pyridin-3-yl)pyrimidin-4-yl)-N,N-dimethylpyrrolidin-3-amine] | 100 to 1000
CN(C)CCC1CCCN1c1cc(-c2ccc(Cl)cc2)nc(-c2cccnc2)n1 (stereo not shown) [Example 165, 2-(1-(6-(4-chlorophenyl)-2-(pyridin-3-yl)pyrimidin-4-yl)pyrrolidin-2-yl)-N,N-dimethylethan-1-amine] | > 1000
O=C1CCN(c2cc(-c3ccc(Cl)cc3)nc(-c3cccnc3)n2)CC1 [Example 166, 1-(6-(4-chlorophenyl)-2-(pyridin-3-yl)pyrimidin-4-yl)piperidin-4-one] | 10 to 100
CN(c1cc(-c2ccc(Cl)cc2)nc(-c2cccnc2)n1)C1CCNCC1 [Example 167, 6-(4-chlorophenyl)-N-methyl-N-(piperidin-4-yl)-2-(pyridin-3-yl)pyrimidin-4-amine] | > 1000
CN1CCCCC1CCNc1cc(-c2ccc(Cl)cc2)nc(-c2cccnc2)n1 (stereo not shown) [Example 168, 6-(4-chlorophenyl)-N-(2-(1-methylpiperidin-2-yl)ethyl)-2-(pyridin-3-yl)pyrimidin-4-amine] | > 1000
CC(Nc1cc(-c2ccc(Cl)cc2)nc(-c2cccnc2)n1)C1CCN(C)CC1 (stereo not shown) [Example 169, 6-(4-chlorophenyl)-N-(1-(1-methylpiperidin-4-yl)ethyl)-2-(pyridin-3-yl)pyrimidin-4-amine] | > 1000
COC(=O)CN1CCC(Nc2cc(-c3ccc(Cl)cc3)nc(-c3cccnc3)n2)CC1 [Example 171, methyl 2-(4-((6-(4-chlorophenyl)-2-(pyridin-3-yl)pyrimidin-4-yl)amino)piperidin-1-yl)acetate] | 10 to 100
CC(OC(=O)C(F)(F)F)C1CCN(c2cc(-c3ccc(Cl)cc3)nc(-c3cccnc3)n2)CC1 (stereo not shown) [Example 172, 1-(1-(6-(4-chlorophenyl)-2-(pyridin-3-yl)pyrimidin-4-yl)piperidin-4-yl)ethyl 2,2,2-trifluoroacetate] | < 10
CN1CCCC(Nc2cc(-c3ccc(Cl)cc3)nc(-c3cccnc3)n2)C1 (stereo not shown) [Example 173, 6-(4-chlorophenyl)-N-(1-methylpiperidin-3-yl)-2-(pyridin-3-yl)pyrimidin-4-amine] | 100 to 1000
Cn1cc(-c2nc(N[C@@H]3CCC[C@@H]3O)cc(-c3ccc(Cl)cc3)n2)cn1 [Example 174, (1S,2R)-2-((6-(4-chlorophenyl)-2-(1-methyl-1H-pyrazol-4-yl)pyrimidin-4-yl)amino)cyclopentan-1-ol] | 100 to 1000
Cn1cc(-c2nc(-c3ccc(Cl)cc3)cc(N3CCC[C@@H](O)C3)n2)cn1 [Example 175, (R)-1-(6-(4-chlorophenyl)-2-(1-methyl-1H-pyrazol-4-yl)pyrimidin-4-yl)piperidin-3-ol] | 10 to 100

SMILES | IC50 [nM]
Cn1cc(-c2nc(-c3ccc(Cl)cc3)cc(N3CCC(O)CC3)n2)cn1 [Example 176, 1-(6-(4-chlorophenyl)-2-(1-methyl-1H-pyrazol-4-yl)pyrimidin-4-yl)piperidin-4-ol] | > 1000
Cn1cc(-c2nc(-c3ccc(Cl)cc3)cc(N3CCC(CO)CC3)n2)cn1 [Example 177, (1-(6-(4-chlorophenyl)-2-(1-methyl-1H-pyrazol-4-yl)pyrimidin-4-yl)piperidin-4-yl)methanol] | 10 to 100
Cn1cc(-c2nc(-c3ccc(Cl)cc3)cc(N3CCC(CCO)CC3)n2)cn1 [Example 178, 2-(1-(6-(4-chlorophenyl)-2-(1-methyl-1H-pyrazol-4-yl)pyrimidin-4-yl)piperidin-4-yl)ethan-1-ol] | 100 to 1000
Cn1cc(-c2nc(-c3ccc(Cl)cc3)cc(N3CCC(CCCO)CC3)n2)cn1 [Example 179, 3-(1-(6-(4-chlorophenyl)-2-(1-methyl-1H-pyrazol-4-yl)pyrimidin-4-yl)piperidin-4-yl)propan-1-ol] | 100 to 1000
CC1CCN(c2cc(-c3ccc(Cl)cc3)nc(-c3cnn(C)c3)n2)CC1 [Example 180, 4-(4-chlorophenyl)-2-(1-methyl-1H-pyrazol-4-yl)-6-(4-methylpiperidin-1-yl)pyrimidine] | > 1000
CN1CCN(c2cc(-c3ccc(Cl)cc3)nc(-c3cnn(C)c3)n2)CC1 [Example 181, 4-(4-chlorophenyl)-2-(1-methyl-1H-pyrazol-4-yl)-6-(4-methylpiperazin-1-yl)pyrimidine] | 100 to 1000
Cn1cc(-c2nc(-c3ccc(Cl)cc3)cc(N3CCN(CCO)CC3)n2)cn1 [Example 182, 2-(4-(6-(4-chlorophenyl)-2-(1-methyl-1H-pyrazol-4-yl)pyrimidin-4-yl)piperazin-1-yl)ethan-1-ol] | 100 to 1000
Cn1cc(-c2nc(-c3ccc(Cl)cc3)cc(N3CC[C@H](O)C3)n2)cn1 [Example 183, (S)-1-(6-(4-chlorophenyl)-2-(1-methyl-1H-pyrazol-4-yl)pyrimidin-4-yl)pyrrolidin-3-ol] | 100 to 1000
Cn1cc(-c2nc(-c3ccc(Cl)cc3)cc(N3CCC(C#N)CC3)n2)cn1 [Example 184, 1-(6-(4-chlorophenyl)-2-(1-methyl-1H-pyrazol-4-yl)pyrimidin-4-yl)piperidine-4-carbonitrile] | 100 to 1000
Cn1cc(-c2nc(-c3ccc(Cl)cc3)cc(N3CCC[C@@H](CO)C3)n2)cn1 [Example 185, (R)-(1-(6-(4-chlorophenyl)-2-(1-methyl-1H-pyrazol-4-yl)pyrimidin-4-yl)piperidin-3-yl)methanol] | 100 to 1000
Cn1cc(-c2nc(-c3ccc(Cl)cc3)cc(N3CC[C@@H](O)C3)n2)cn1 [Example 186, (R)-1-(6-(4-chlorophenyl)-2-(1-methyl-1H-pyrazol-4-yl)pyrimidin-4-yl)pyrrolidin-3-ol] | > 1000
Cn1cc(-c2nc(N[C@@H]3CC[C@H](O)C3)cc(-c3ccc(Cl)cc3)n2)cn1 [Example 187, (1S,3R)-3-((6-(4-chlorophenyl)-2-(1-methyl-1H-pyrazol-4-yl)pyrimidin-4-yl)amino)cyclopentan-1-ol] | 100 to 1000
CC[C@H](CO)Nc1cc(-c2ccc(Cl)cc2)nc(-c2cnn(C)c2)n1 [Example 188, (R)-2-((6-(4-chlorophenyl)-2-(1-methyl-1H-pyrazol-4-yl)pyrimidin-4-yl)amino)butan-1-ol] | 100 to 1000
Cn1cc(-c2nc(N[C@H]3CC[C@H](O)CC3)cc(-c3ccc(Cl)cc3)n2)cn1 [Example 189, Trans-4-((6-(4-chlorophenyl)-2-(1-methyl-1H-pyrazol-4-yl)pyrimidin-4-yl)amino)cyclohexan-1-ol] | 100 to 1000
Clc1ccc(-c2cc(N3CCC4CCCOC4C3)nc(-c3cccnc3)n2)cc1 (stereo not shown) [Example 190, 7-(6-(4-chlorophenyl)-2-(pyridin-3-yl)pyrimidin-4-yl)octahydro-2H-pyrano[2,3-c]pyridine] | 10 to 100
OC1CCOC2CN(c3cc(-c4ccc(Cl)cc4)nc(-c4cccnc4)n3)CCC12 (stereo not shown) [Example 191, 7-(6-(4-chlorophenyl)-2-(pyridin-3-yl)pyrimidin-4-yl)octahydro-2H-pyrano[2,3-c]pyridin-4-ol] | 10 to 100
CC[C@@H](Nc1cc(-c2ccc(Cl)cc2)nc(-c2cccnc2)n1)[C@@H](C)O [Example 192, (2R,3R)-3-((6-(4-chlorophenyl)-2-(pyridin-3-yl)pyrimidin-4-yl)amino)pentan-2-ol] | 100 to 1000
